This is an account of results in patent US8901295B2 (Institut National de la Sante et de la Recherche Medicale …, priority 2009, dated 2014).

Read-outs that look alike come from different tables or passages of the source.

One data set addresses Cyclophilin B (CypB) (Homo sapiens (Human), UniProt P23284). Kind of data set: Cyclophilin PPIase enzymatic assay (chymotrypsin coupled), CypB. It counts as biochemical. As to conditions: for Inhibition (%): activity test at 100 μM on CypB; for IC50: CypB. As for the experimental part:
(§1) Cyclophilin A, B protein carrying a hexahistidine tag (His-Tag) at the C-terminus, were expressed in Escherichia coli and purified. Briefly, cultures of C41(DE3) cells were grown at 37° C. for ˜1 h until the culture reached an optical density of 0.6 at 600 nm, and induced with 1 mM isopropyl β-D-thiogalactoside for 4 h at 37° C. or overnight at 22° C. for cylophilin A and cyclophilin B, respectively. Cell pellets (1 L) were resuspended in a lysis buffer (20 mM NaH2PO4 (pH 7.8), 300 mM NaCl, 7 mM β-mercaptoethanol, 1 mg/ml lysozyme, 0.1 U/μl Desoxyribonuclease and complete protease inhibitor tablets (Roche)). The sonicated cell lysates were clarified by centrifugation at 10 000 g for 45 min at 4° C., chromatographed on a Ni-NTA column and washed with buffer: (20 mM NaH2PO4 (pH7.8), 300 mM NaCl, 50 mM imidazole, 7 mM β-mercaptoethanol, 10% glycerol). The bound protein was eluted in 1 ml fractions with buffer: (20 mM NaH2PO4 (pH7.8), 300 mM NaCl, 250 mM imidazole, 7 mM β-mercaptoethanol, 10% glycerol) and monitored by the Bradford colorimetric assay. The purity of each cyclophilin was determined by Coomassie-stained SDS-PAGE analysis.
(§2) The reaction was initiated by adding 20 μL of 3.2 mM peptide substrate (Suc-Ala-Ala-cis-Pro-Phe-pNA) in LiCl/TFE solution with rapid inversion. […] The final concentration of LiCl in the assay was 20 mM; TFE was present at a concentration of 4% (v/v). Absorbance readings were collected every 1 s by spectrophotometer. The inhibition assays of compounds were performed in the same manner as mentioned above. A 5 μL aliquot of the compounds in DMSO was added to the cyclophilin solution in the assay buffer. The assay was started by the addition of the substrate. Cyclosporine A was used as control in all measurement. The percentage inhibition of cyclophilin PPiase activity were calculated from slopes and values obtained represent an average of at least two independent measurements.

For a further data set, the target named is Cyclophilin D (CypD) (Homo sapiens, UniProt P30405, K175I). The data set can be described thus: Cyclophilin PPIase enzymatic assay (chymotrypsin coupled), CypD. It counts as biochemical. As for the experimental part: The protein was expressed in E. coli strain BL21(DE3). Bacteria were grown in LB medium at 37° C. and induced during 2 h with isopropyl-β-D-thiogalactopyranoside (IPTG) around OD 0.8. Cells were lysed by sonication in a buffer consisting of 50 mM Tris at pH 7.5, 2 mM EDTA and 2 mM β-mercaptoethanol (buffer A). The lysate was centrifuged at 40000 g for 30 min. The supernatant was loaded on a Q-Sepharose and S-Sepharose columns in series equilibrated with buffer A. The S-Sepharose column was washed with equilibrium buffer and bound proteins were eluted with a linear gradient from 0 to 1M NaCl.
as §2

The next data set has as its target Cyclophilin A (CypA) (Homo sapiens (Human), UniProt P62937). The data set can be described thus: Cyclophilin PPIase enzymatic assay (chymotrypsin coupled), CypA. It counts as biochemical. As to conditions: for IC50: CypA. As for the experimental part: as §1, §2
For data set [1], the system named is HCV genotype 1b bicistronic replicon in Huh7 cells. The data set can be described thus: Antiviral activity in the replicon model. The settings on record: Hepatitis C virus, Huh-7, 72 h. The format is cell-based. As for the experimental part:
HCV replicon harboring cells were seeded at a low density of 5000 cells per well in 96-well plates. The cells were treated with increasing concentrations of the tested compounds in Dulbecco modified Eagle medium containing 10% fetal bovine serum and 1% DMSO without G418 and cultured for 3 days. Total RNA was extracted using the RNeasy 96 kit (Qiagen). […] HCV RNA levels were measured by means of […]. The results were normalized to GAPDH gene. Each data point represents the average of at least three replicates in cell culture. HCV RNA level reductions after treatment were assessed by comparing the level of HCV RNA in compound-treated cells to that of control cells treated with 1% DMSO.
(In antiviral work, replicon cells carry a viral genome segment that copies itself.)

The nature of another data set: Acute toxicity in mice. It counts as in vivo. The settings on record: female mice, 1, 10, 50 and 150 mg/kg, one intraperitonal injection. As for the experimental part: The acute toxicity of F684 was evaluated in mice. In this study, female mice (n=3/group) were administered with the negative control (PBS) or F684 (1 mg/kg, 10 mg/kg, 50 mg/kg and 150 mg/kg of body weight dissolved in PBS), one time by intraperitonal injection. At the time of injection, animals were approximately 5 month old and body weights ranged from 27 to 33 g.

The mark [2] stands for this setting: activity test at 100 μM on CypA, read-out: Inhibition (%).
Where [3] appears, read: HCV genotype 1b replicon, Huh7 cells, 3 days, HCV RNA, read-out: EC50 replicon.

Chain of Cyclophilin B (CypB) (P23284 34-216): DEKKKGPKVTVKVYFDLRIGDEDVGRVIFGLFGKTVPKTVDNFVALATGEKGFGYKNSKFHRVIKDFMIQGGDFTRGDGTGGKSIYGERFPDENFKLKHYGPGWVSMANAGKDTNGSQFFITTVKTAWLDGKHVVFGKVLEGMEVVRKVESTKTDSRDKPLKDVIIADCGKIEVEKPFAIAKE
Chain of Cyclophilin D (CypD) (P30405 30-207 K175I limits assumed): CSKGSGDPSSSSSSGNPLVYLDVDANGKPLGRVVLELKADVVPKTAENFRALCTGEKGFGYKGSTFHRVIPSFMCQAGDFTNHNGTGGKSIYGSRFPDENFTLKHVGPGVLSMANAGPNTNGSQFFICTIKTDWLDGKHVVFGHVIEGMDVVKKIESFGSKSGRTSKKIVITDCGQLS
Chain of Cyclophilin A (CypA) (P62937 whole entry): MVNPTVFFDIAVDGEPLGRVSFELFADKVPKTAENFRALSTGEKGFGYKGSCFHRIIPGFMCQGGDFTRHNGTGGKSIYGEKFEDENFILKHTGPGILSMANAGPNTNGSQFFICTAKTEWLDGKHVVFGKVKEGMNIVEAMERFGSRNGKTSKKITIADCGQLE

Turning to “2-(3-(3-acetamidobenzyl)ureido)acetate [Compound F566]”, the figures for the “Inhibition (%)” value at Cyclophilin B (CypB) and at Cyclophilin D (CypD) (activity test at 100 μM on CypD) were 26.5% and 22.7%, respectively.

Regarding `CCOC(=O)CNC(=O)NCc1ccc(OC)cc1` [Compound F429, ethyl 2-(3-(4-methoxybenzyl)ureido)acetate], the inhibition at 1000 µM at Cyclophilin D (CypD) was determined as 42.1%.

For `CCOC(=O)CNC(=O)NCC1CCNCC1` [Compound F509, ethyl 2-(3-(piperidin-4-ylmethyl)ureido)acetate], at Cyclophilin D (CypD), the inhibition at 100 µM came to 18.3%.

`CCOC(=O)CNC(=O)NCc1cccc(F)c1` [Compound F511, ethyl 2-(3-(3-fluorobenzyl)ureido)acetate]: the inhibition at 100 µM at Cyclophilin D (CypD) is 12.9%.

Regarding `CCOC(=O)CNC(=O)NCc1cccc(OC)c1` [Compound F512, ethyl 2-(3-(3-methoxybenzyl)ureido)acetate], the inhibition at 100 µM against Cyclophilin B (CypB) came to 16.6%; on Cyclophilin D (CypD), 26.5%.

Turning to `Nc1ccc(CNC(=O)NCC(=O)N2CCOCC2)cc1` [Compound F544, 1-(4-aminobenzyl)-3-(2-morpholino-2-oxoethyl)urea], the inhibition at 100 µM at Cyclophilin A (CypA) (setting [2]) came out at 12.2%; against Cyclophilin B (CypB) it was 26%.

With `CCOC(=O)C1CCCN(C(=O)CNC(=O)NCc2ccc(N)cc2)C1` (stereo not shown) [Compound F545, ethyl 1-(2-(3-(4-aminobenzyl)ureido)acetyl)piperidine-3-carboxylate], at Cyclophilin A (CypA) (setting [2]), the inhibition at 100 µM was determined as 49.2%. Moreover, at Cyclophilin B (CypB), the inhibition at 100 µM was 65.7% and the IC50 came out at 75.1 µM.

Regarding `Nc1ccc(CNC(=O)NCC(=O)NCCc2ccccc2)cc1` [Compound F547, 2-(3-(4-aminobenzyl)ureido)-N-2-phenyl-ethylacetamide], the results for the inhibition at 100 µM on Cyclophilin A (CypA) (setting [2]) and against Cyclophilin B (CypB) were 22.5% and 15.2%, respectively.

For the compound `CCOC(=O)CNC(=O)NCc1ccc(O)c(O)c1` [Compound F548, ethyl 2-(3-(3,4-dihydroxybenzyl)ureido)acetate], the figures for the inhibition at 100 µM against Cyclophilin B (CypB) and at Cyclophilin D (CypD) were 20.8% and 25.5%, respectively.

Turning to `CCOC(=O)CNC(=O)NCc1cccc(N)c1` [Compound F549, ethyl 2-(3-(3-aminobenzyl)ureido)acetate], the inhibition at 100 µM was 14.8% at Cyclophilin A (CypA) (setting [2]), 48.9% against Cyclophilin B (CypB) and 24.5% on Cyclophilin D (CypD).

For `Nc1ccc(CNC(=O)NCC(=O)N2CCOC(CN3C(=O)c4ccccc4C3=O)C2)cc1` (stereo not shown) [Compound F554, 1-(4-aminobenzyl)-3-(2-(2-((1,3-dioxoisoindolin-2-yl)methyl)morpholino)-2-oxoethyl)urea], the values for the inhibition at 100 µM at Cyclophilin A (CypA) (setting [2]), on Cyclophilin B (CypB) and against Cyclophilin D (CypD) were 67.2%, 70.9% and 20.9%, respectively. The compound also registered a 50% inhibitory concentration (IC50) against Cyclophilin B (CypB) of 24.6 µM.

For `COc1ccc(N(C)C(=O)CNC(=O)NCc2ccc(N)cc2)cc1` [Compound F555, 2-(3-(4-aminobenzyl)ureido)-N-4-methoxyphenyl-N-methylacetamide], the inhibition at 100 µM at Cyclophilin A (CypA) (setting [2]) worked out at 65.1%; at Cyclophilin D (CypD), 26.1%.

On to `CN(C(=O)CNC(=O)NCc1ccc(N)cc1)c1ccccc1` [Compound F557, 2-(3-(4-aminobenzyl)ureido)-N-phenyl-N-methylacetamide], for which the inhibition at 100 µM was found to be 63.4% at Cyclophilin A (CypA) (setting [2]) and 42.9% at Cyclophilin D (CypD).

With `CCN(O)C(=O)CNC(=O)NCc1ccc(N)nc1` [Compound F606, 2-(3-((6-aminopyridin-3-yl)methyl)ureido)-N-hydroxy-N-ethylacetamide], the inhibition at 100 µM on Cyclophilin A (CypA) (setting [2]) was 18.9%; at Cyclophilin B (CypB) it was 17.3%.

Take `CCN(OCc1ccccc1)C(=O)CNC(=O)NCc1ccc(N)cc1` [Compound F607]: the IC50 against Cyclophilin A (CypA) amounted to 9 µM; on Cyclophilin B (CypB), 4.8 µM; at Cyclophilin D (CypD) (CypD, read-out: CypD IC50), 30 µM. The “Inhibition (%)” value on Cyclophilin B (CypB) amounted to 95.3%.

Consider `Nc1ccc(CNC(=O)Nc2cnc3sccn3c2=O)cc1` [Compound F608, 1-(4-aminobenzyl)-3-(5-oxo-5H-thiazolo[3,2-a]pyrimidin-6-yl)urea], for which the inhibition at 100 µM on Cyclophilin A (CypA) (setting [2]) turned out to be 26.3%; on Cyclophilin B (CypB), 38.7%.

Take `COc1ccccc1C1CCCN1C(=O)CNC(=O)NCc1ccc(N)cc1` (stereo not shown) [Compound F609, 1-(4-aminobenzyl)-3-(2-(2-(2-methoxyphenyl)pyrrolidin-1-yl)-2-oxoethyl)urea]: in data set [1] (setting [3]), the EC50 came to 20 µM. The inhibition at 100 µM stood at 100% against Cyclophilin A (CypA) and 101% on Cyclophilin B (CypB). Besides, the IC50 worked out at 2.8 µM on Cyclophilin A (CypA), 1.2 µM on Cyclophilin B (CypB) and 11.4 µM at Cyclophilin D (CypD).

Consider `CCOC(=O)C(Cc1cccc(OCc2ccccc2)c1)NC(=O)NCc1ccc(N)cc1` (stereo not shown) [Compound F611, ethyl 2-(3-(4-aminobenzyl)ureido)-3-(3-(benzyloxy)phenyl)propanoate], for which the inhibition at 100 µM at Cyclophilin A (CypA) (setting [2]) turned out to be 72.8%; against Cyclophilin B (CypB) it was 73.3%.

As to `CCOC(=O)C(Cc1cccc(O)c1)NC(=O)NCc1ccc(N)cc1` (stereo not shown) [Compound F612, ethyl 2-(3-(4-aminobenzyl)ureido)-3-(3-hydroxyphenyl)propanoate], the inhibition at 100 µM on Cyclophilin A (CypA) (setting [2]) amounted to 26.3%; on Cyclophilin B (CypB) it was 26.7%.

As for `Nc1ccc(CNC(=O)NCC(=O)N2CCCC2c2cccc3ccccc23)cc1` (stereo not shown) [Compound F671, 1-(4-aminobenzyl)-3-(2-(2-(naphthalen-1-yl)pyrrolidin-1-yl)-2-oxoethyl)urea], in data set [1] (setting [3]), the EC50 is 4.3 µM. For the same compound, the half-inhibitory concentration (IC50) against Cyclophilin A (CypA) turned out to be 1.5 µM; at Cyclophilin D (CypD), 1.4 µM.

As for `Nc1ccc(CNC(=O)NCC(=O)N2CCCC2c2ccccc2Cl)cc1` (stereo not shown) [Compound F673, 1-(4-aminobenzyl)-3-(2-(2-(2-chlorophenyl)pyrrolidin-1-yl)-2-oxoethyl)urea], the concentration for half-maximal inhibition (IC50) on Cyclophilin A (CypA) was 3.4 µM; against Cyclophilin D (CypD) it was 6.2 µM.

For the compound `CSc1ccccc1C1CCCN1C(=O)CNC(=O)NCc1ccc(N)cc1` (stereo not shown) [Compound F684, 1-(4-aminobenzyl)-3-(2-(2-(2-(methylthio)phenyl)pyrrolidin-1-yl)-2-oxoethyl)urea], in “Acute toxicity in mice”, the acute toxicity result is listed as “not acutely toxic”; the “body weights, feed consumption, clinical observations or gross organ necropsy vs vehicle control” value was “No differences”; the survival entry is recorded as “All animals survived to scheduled sacrifice”. In addition, the 50% effective concentration (EC50) in data set [1] (read-out: EC50 replicon (μM)) worked out at 0.8 µM. Also, at Cyclophilin A (CypA), the IC50 is 0.37 µM. This compound showed a 50% inhibitory concentration (IC50) on Cyclophilin B (CypB) of 0.65 µM. Also, the IC50 against Cyclophilin D (CypD) came to 0.64 µM.

Consider `CSc1ccccc1C1CCCN1C(=O)C(CC(C)C)NC(=O)NCc1ccc(N)cc1` (stereo not shown) [Compound F712, 1-(4-aminobenzyl)-3-(4-methyl-1-(2-(2-(methylthio)phenyl)pyrrolidin-1-yl)-1-oxopentan-2-yl)urea], for which the values for the concentration for half-maximal inhibition (IC50) at Cyclophilin A (CypA) and on Cyclophilin D (CypD) were 3.3 µM and 3 µM, respectively.

In the case of `CSc1ccccc1C1CCCN1C(=O)C(C)NC(=O)NCc1ccc(N)cc1` (stereo not shown) [Compound F714, 1-(4-aminobenzyl)-3-(1-(2-(2-(methylthio)phenyl)pyrrolidin-1-yl)-1-oxopropan-2-yl)urea], the values for the 50% inhibitory concentration (IC50) on Cyclophilin A (CypA) and against Cyclophilin D (CypD) were 3.1 µM and 1.1 µM, respectively.

The term inhibition denotes the drop in the measured response relative to a control, in per cent. The IC50 is the midpoint of a concentration-inhibition curve. In general, EC50 refers to the concentration that produces a half-maximal response.
